According to patent publication US6627628B1, “Substituted 4-amino-2-aryl-cyclopenta[d]pyrimidines, their production and use and pharmaceutical preparations containing same” (Aventis Pharma Deutschland, GmbH, priority 1998, dated 2003):
Blank lines part the entries; values can stand above or below the compound they belong to.

What was measured:
[1] = target: T1, soluble guanylate cyclase (sGC) (Bos taurus, UniProt P16068+P19687); assay: Activation of soluble guanylate cyclase (cGMP enzyme immunoassay); type: biochemical; conditions: sGC isolated from bovine lung; test substance 50 μM; 5% DMSO; 37° C., 15 to 20 minutes; [cGMP]test substance/[cGMP]control (basal enzyme activity)
T1 construct: The sGC employed had been isolated from bovine lung; from tissue; host or cells: bovine lung
T1 sequence (P19687 1-691): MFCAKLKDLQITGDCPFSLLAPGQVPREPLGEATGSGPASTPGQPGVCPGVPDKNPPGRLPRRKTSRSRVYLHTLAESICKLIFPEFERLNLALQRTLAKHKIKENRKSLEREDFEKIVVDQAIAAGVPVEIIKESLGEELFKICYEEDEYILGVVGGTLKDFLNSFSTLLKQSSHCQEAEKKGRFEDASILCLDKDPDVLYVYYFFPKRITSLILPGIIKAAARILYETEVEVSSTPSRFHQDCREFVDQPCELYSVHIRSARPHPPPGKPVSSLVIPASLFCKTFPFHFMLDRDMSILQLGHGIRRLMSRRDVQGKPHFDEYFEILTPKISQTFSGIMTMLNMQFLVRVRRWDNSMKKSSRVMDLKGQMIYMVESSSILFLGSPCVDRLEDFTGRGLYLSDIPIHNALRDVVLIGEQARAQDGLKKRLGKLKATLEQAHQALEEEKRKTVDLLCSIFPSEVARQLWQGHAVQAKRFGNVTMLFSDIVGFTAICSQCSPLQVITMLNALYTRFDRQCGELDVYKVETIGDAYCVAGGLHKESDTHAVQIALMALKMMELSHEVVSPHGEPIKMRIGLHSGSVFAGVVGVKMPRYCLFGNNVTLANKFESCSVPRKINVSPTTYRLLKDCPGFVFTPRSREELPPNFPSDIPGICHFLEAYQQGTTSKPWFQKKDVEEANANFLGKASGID
T1 sequence (P16068 1-619): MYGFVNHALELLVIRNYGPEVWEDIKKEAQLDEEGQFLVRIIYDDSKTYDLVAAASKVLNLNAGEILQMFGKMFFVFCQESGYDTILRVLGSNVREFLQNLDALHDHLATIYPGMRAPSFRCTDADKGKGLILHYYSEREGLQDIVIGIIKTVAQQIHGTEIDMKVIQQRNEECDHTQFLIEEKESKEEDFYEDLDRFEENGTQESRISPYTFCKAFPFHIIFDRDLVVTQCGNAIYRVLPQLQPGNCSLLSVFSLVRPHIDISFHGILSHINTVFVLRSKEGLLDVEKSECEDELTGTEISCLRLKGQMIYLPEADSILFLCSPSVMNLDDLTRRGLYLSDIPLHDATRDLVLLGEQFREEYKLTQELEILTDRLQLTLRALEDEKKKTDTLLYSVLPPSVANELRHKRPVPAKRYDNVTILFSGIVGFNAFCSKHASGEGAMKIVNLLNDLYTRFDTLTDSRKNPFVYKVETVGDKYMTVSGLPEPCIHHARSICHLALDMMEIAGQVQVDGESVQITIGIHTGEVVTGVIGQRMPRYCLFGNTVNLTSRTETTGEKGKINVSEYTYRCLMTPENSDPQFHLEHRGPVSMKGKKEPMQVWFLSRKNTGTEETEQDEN
Procedure: Activation of Soluble Guanylate Cyclase
The activation of soluble guanylate cyclase (sGC), which catalyzes the conversion of guanosine triphosphate (GTP) to cyclic guanosine monophosphate (cGMP) and pyrophosphate, by the compounds according to the invention was quantified with the aid of an enzyme immunoassay (EIA) from Amersham. For this, the test substances were first incubated with sGC in microtiter plates and then the quantity of the resulting cGMP was determined.
The test solutions (100 μl per well) contained 50 mM triethanolamine (TEA) buffer (pH 7.5), 3 mM MgCl2, 3 mM reduced glutathione (GSH), 0.1 mM GTP, 1 mM 3-isobutyl-1-methylxanthine (IBMX), suitably diluted enzyme solution and the test substance or, in the control experiments, solvent. The test substances were dissolved in dimethyl sulfoxide (DMSO) and the solution was diluted with DMSO/water such that the final concentration c of test substance in the test batch was 50 μM. The DMSO concentration in the test batch was 5% (v/v). The reaction was started by addition of the sGC. The reaction mix was incubated at 37° C. for 15 to 20 minutes and then stopped by ice-cooling and addition of the stop reagent (50 mM EDTA, pH 8.0). An aliquot of 50 μl was taken and employed for the determination of the cGMP content using the acetylation protocol of the Amersham cGMP EIA kit. The absorption of the samples was measured at 450 nm (reference wavelength 620 nm) in a microtiter plate reading apparatus. The cGMP concentration was determined by means of a calibration curve, which was obtained under the same experimental conditions.
n-fold stimulation=[cGMP]test substance/[cGMP]control.

SMILES: CCCN(CCC)c1nc(-c2ccc(C)cc2)nc2c1CCC2 [Example 45, 2-(4-Methylphenyl)-4-dipropylamino-6,7-dihydro-5H-cyclopenta[d]pyrimidine]
n-fold stimulation at c = 50 μM [1]: 7 fold
melting point: 117 °C

SMILES: CCCN(CCC)c1nc(-c2ccc(Cl)cc2)nc2c1CCC2 [Example 35, 2-(4-Chlorophenyl)-4-dipropylamino-6,7-dihydro-5H-cyclopenta[d]pyrimidine]
n-fold stimulation at c = 50 μM [1]: 7 fold
melting point: 114 °C

SMILES: OCCCCNc1nc(-c2cc(Cl)cc(Cl)c2)nc2c1CCC2 [Example 48, 2-(3,5-Dichlorophenyl)-4-(4-hydroxybutylamino)-6,7-dihydro-5H-cyclopenta[d]-pyrimidine]
n-fold stimulation at c = 50 μM [1]: 9 fold
melting point: 142 °C

SMILES: CCCCNc1nc(-c2ccc(Cl)cc2)nc2c1CCC2 [Example 30, 2-(4-Chlorophenyl)-4-butylamino-6,7-dihydro-5H-cyclopenta[d]pyrimidine]
n-fold stimulation at c = 50 μM [1]: 6 fold
melting point: 121 °C

SMILES: CCCCNc1nc(-c2ccc(C)cc2)nc2c1CCC2 [Example 40, 2-(4-Methylphenyl)-4-butylamino-6,7-dihydro-5H-cyclopenta[d]pyrimidine]
n-fold stimulation at c = 50 μM [1]: 8 fold
melting point: 133 °C

SMILES: CCN(CC)c1nc(-c2ccc(Cl)cc2)nc2c1CCC2.Cl [Example 26, 2-(4-Chlorophenyl)-4-diethylamino-6,7-dihydro-5H-cyclopenta[d]pyrimidine hydrochloride]
n-fold stimulation at c = 50 μM [1]: 5 fold
melting point: 185 °C

SMILES: CCN(CC)c1nc(-c2cccc(Cl)c2)nc2c1CCC2.Cl [Example 25, 2-(3-Chlorophenyl)-4-diethylamino-6,7-dihydro-5H-cyclopenta[d]pyrimidine hydrochloride]
n-fold stimulation at c = 50 μM [1]: 6 fold
melting point: 185 °C

SMILES: CCCCNc1nc(-c2cc(Cl)cc(Cl)c2)nc2c1CCC2 [Example 49, 2-(3,5-Dichlorophenyl)-4-butylamino-6,7-dihydro-5H-cyclopenta[d]pyrimidine]
n-fold stimulation at c = 50 μM [1]: 5 fold
melting point: 93 °C

The next lines start with the values.

n-fold stimulation at c = 50 μM [1]: 5 fold
SMILES: CCCCNc1nc(-c2cccc(Cl)c2)nc2c1CCC2 [Example 33, 2-(3-Chlorophenyl)-4-butylamino-6,7-dihydro-5H-cyclopenta[d]pyrimidine]

n-fold stimulation at c = 50 μM [1]: 23 fold
melting point: 191 °C
SMILES: Cc1ccc(-c2nc3c(c(N[C@H]4CC[C@H](O)CC4)n2)CCC3)cc1 [Example 43, 2-(4-Methylphenyl)-4-(trans-4-hydroxycyclohexylamino)-6,7-dihydro-5H-cyclopenta[d]pyrimidine]

n-fold stimulation at c = 50 μM [1]: 7 fold
SMILES: Clc1ccc(-c2nc3c(c(NC4CCCC4)n2)CCC3)cc1 [Example 15, 2-(4-Chlorophenyl)-4-cyclopentylamino-6,7-dihydro-5H-cyclopenta[d]pyrimidine]

n-fold stimulation at c = 50 μM [1]: 35 fold
melting point: 216 °C
SMILES: O[C@H]1CC[C@H](Nc2nc(-c3ccc(Cl)cc3)nc3c2CCC3)CC1 [Example 34, 2-(4-Chlorophenyl)-4-(trans-4-hydroxycyclohexylamino)-6,7-dihydro-5H-cyclopenta[d]pyrimidine]

n-fold stimulation at c = 50 μM [1]: 34 fold
SMILES: CS(=O)(=O)O.O[C@H]1CC[C@H](Nc2nc(-c3cc(Cl)cc(Cl)c3)nc3c2CCC3)CC1 [Example 16, 2-(3,5-Dichlorophenyl)-4-(trans-4-hydroxycyclohexylamino)-6,7-dihydro-5H-cyclopenta[d]pyrimidine methanesulfonic acid salt]

n-fold stimulation at c = 50 μM [1]: 9 fold
melting point: 183 °C
SMILES: Cc1ccc(-c2nc3c(c(NC4CCCC4)n2)CCC3)cc1 [Example 41, 2-(4-Methylphenyl)-4-cyclopentylamino-6,7-dihydro-5H-cyclopenta[d]pyrimidine]

n-fold stimulation at c = 50 μM [1]: 10 fold
melting point: 163 °C
SMILES: Cc1ccc(-c2nc3c(c(NC4CCCCC4)n2)CCC3)cc1 [Example 42, 2-(4-Methylphenyl)-4-cyclohexylamino-6,7-dihydro-5H-cyclopenta[d]pyrimidine]

n-fold stimulation at c = 50 μM [1]: 8 fold
melting point: 153 °C
SMILES: Clc1cc(Cl)cc(-c2nc3c(c(NC4CCCC4)n2)CCC3)c1 [Example 50, 2-(3,5-Dichlorophenyl)-4-cyclopentylamino-6,7-dihydro-5H-cyclopenta[d]-pyrimidine]

n-fold stimulation at c = 50 μM [1]: 15 fold
melting point: 129 °C
SMILES: Clc1cccc(-c2nc3c(c(NC4CCCC4)n2)CCC3)c1 [Example 32, 2-(3-Chlorophenyl)-4-cyclopentylamino-6,7-dihydro-5H-cyclopenta[d]pyrimidine]
